The values that follow are results of earlier work, collected in patent US20100239665A1 (priority 2007, published 2010).

Take `COCCOC(=O)C1=C(C)NC(C)=C(C(=O)OC(C)C)C1c1cccc([N+](=O)[O-])c1` (stereo not shown) [Nimodipine]: the solubility in water result is given as “practically insoluble in water”.
